Entries after “also recorded” stand apart in the source; their conditions may differ. Where a SMILES comes first, the peptide text is derived from it. Bridges are numbered along the chain shown (N, C = ends). Where no end group is shown, it is not given here. [ ]: non-standard residue; d: D form. The star is where a group is joined. Phenylacetyl(4-Ph) = O=C(Cc1ccc(-c2ccccc2)cc1)*; Acetyl(2-naphthyloxy) = O=C(COc1ccc2ccccc2c1)*; Acetyl(2-naphthyl) = O=C(Cc1ccc2ccccc2c1)*
Legend:
[1] = test system: specific receptor sites on BASM or BAE cells; assay: competitive displacement receptor binding assay (Tables IA-IE); parameters: species or system bovine; settings: statements in words on Tables IA-IE; displacement of [^125I]-rANP(126-150)
Text: (§1) An assay has been developed, generally in accordance with the disclosure of Schenk, supra, and Scarborough, R.M. et al., J. Biol. Chem. 261:12960-12964 (1986), which evaluates the ability of ANP analogs to compete with a labeled native ANP for binding to cultured BASM and BAE cells. This native ANP, having the amino acid sequence: [drawing 103] was iodinated on the Carboxy-terminal Y residue and is identified as […]. Analogous "competitive displacement" receptor binding assays are considered commonplace in the art for examining specific ligand-receptor interactions.
(§2) Assuming these ANP analogs act at one or more ANP receptor sites, then increased receptor affinity should reflect increased biological potency.

[2] = test system: pentobarbital anesthetized dogs; assay: diuresis and natriuresis in anesthetized dogs; type: in vivo; settings: vs saline controls
Procedure: In these examples, cannulae were placed in the left and right ureters and femoral vein of anesthetized dogs and urine was collected from the ureters. Analog peptides were administered via the femoral vein. Prior to infusing analog peptides, saline was infused for 30 minutes and urine was then collected for three ten minute collection periods. Urine volume was determined gravimetrically and urine sodium was determined photometrically.
Following these three baseline collection periods, the selected analog peptides were infused for 60 minutes and urinary flow was measured for an additional 60 minutes following infusion. During infusion (60 minutes) and recovery (60 minutes), ten minute collection periods were obtained. Control animals which received only saline were studied in parallel.

[3] = target: T1, BASM cell-associated receptors (Bos taurus, UniProt P10730); assay: competitive displacement receptor binding assay, BASM cells (Figure 1); parameters: species or system bovine; settings: 0.5 nM [^125I]-rANP(126-150), increasing concentrations of unlabeled peptide
T1 construct: endogenous in cells; host or cells: cultured BASM cells
T1 sequence (P10730 42-537): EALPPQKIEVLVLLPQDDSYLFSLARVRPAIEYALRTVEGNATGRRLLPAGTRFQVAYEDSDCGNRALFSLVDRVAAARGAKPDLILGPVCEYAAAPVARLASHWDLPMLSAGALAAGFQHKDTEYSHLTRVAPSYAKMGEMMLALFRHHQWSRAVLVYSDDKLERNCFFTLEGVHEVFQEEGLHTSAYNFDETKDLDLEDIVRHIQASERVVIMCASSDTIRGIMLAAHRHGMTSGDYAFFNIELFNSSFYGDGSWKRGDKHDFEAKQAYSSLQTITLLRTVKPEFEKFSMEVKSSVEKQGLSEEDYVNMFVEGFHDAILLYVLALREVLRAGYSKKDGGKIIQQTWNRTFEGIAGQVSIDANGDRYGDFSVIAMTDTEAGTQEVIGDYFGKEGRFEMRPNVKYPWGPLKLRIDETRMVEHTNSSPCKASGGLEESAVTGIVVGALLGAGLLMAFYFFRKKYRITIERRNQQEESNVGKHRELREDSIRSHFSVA
Text: as §1, §2

[4] = test system: anesthetized rats; assay: diuresis in anesthetized rats; type: in vivo; settings: compared with baseline, Figure 2
Procedure: In one set of examples, cannulae were placed in the left and right ureters and femoral vein of anesthetized rats and urine was collected from the ureters. Analog peptides were administered via the femoral vein. Prior to infusing the analog peptides, saline was infused for 30 minutes, urine was collected for 6 five minutes baseline periods and urine volume was determined gravimetrically. Following these baseline collection periods, various analog peptides were infused for 30 or 60 minutes and urine volume was measured in five minute periods during infusion and for 60 minutes following infusion (at which time rats were returned to saline). Data was examined by averaging urine flow rates for six five- minute baseline control periods immediately preceding infusion, and comparing values during and after administration of peptides with the "baseline" control values. Responses to peptides are thus evaluated and plotted as the percent of baseline control responses. Specific examples are shown in Figures 2A-H. The error bars at the beginning of the graphs represent baseline values ± standard deviations. Responses to peptides that are substantially above baseline ± SD can thus be interpreted as being statistically significant increases.

[5] = infused at 3 µg/kg/minute for 60 minutes
[6] = infused at 1 µg/kg/minute for 60 minutes

Row | Compound | receptor binding affinity (Ki(app)) [1] | further results
1 | CC[C@H](C)[C@H](NC(=O)[C@H](CCCNC(=N)N)NC(=O)[C@H](CC(=O)O)NC(=O)[C@@H](NC(=O)[C@H](CCCNC(=N)N)NC(=O)CNC(=O)CNC(=O)Cc1ccc2ccccc2c1)[C@@H](C)CC)C(=O)NCC(=O)N[C@@H](C)C(N)=O [AP306, [2-Napthylacetyl]-G-G-R-I-D-R-I-G-A-NH2] ({Acetyl(2-naphthyl)}-GGRIDRIGA-NH2) | high binding affinity; also recorded: substantial Ki(app)s | urinary sodium excretion [2, 5]: significantly increased; urine flow rate (urine volume) [2, 5]: significantly increased
2 | CC[C@H](C)[C@H](NC(=O)[C@H](CCCNC(=N)N)NC(=O)[C@H](CC(=O)O)NC(=O)[C@@H](NC(=O)[C@H](CCCNC(=N)N)NC(=O)CNC(=O)[C@@H](C)NC(=O)COc1ccc2ccccc2c1)[C@@H](C)CC)C(N)=O [AP322, [2-Napthoxyacetyl]-[D-A]-G-R-I-D-R-I-NH2] ({Acetyl(2-naphthyloxy)}-[dA]GRIDRI-NH2) | greatly diminished activity | –
3 | CC[C@H](C)[C@H](NC(=O)[C@H](CCCNC(=N)N)NC(=O)[C@@H](CC(=O)O)NC(=O)[C@@H](NC(=O)[C@H](CCCNC(=N)N)NC(=O)CNC(=O)CNC(=O)[C@H](Cc1ccccc1)NC(=O)[C@H](C)N)[C@@H](C)CC)C(=O)NCC(=O)N[C@@H](C)C(N)=O [AP303, A-F-G-G-R-I-[D-D]-R-I-G-A-NH,] (H-AFGGRI[dD]RIGA-NH2) | inactive | –
4 | RIDRIG-NH2 [AP125, R-I-D-R-I-G-NH2] | inactive | –
5 | CC[C@H](C)[C@H](NC(=O)[C@H](CCCNC(=N)N)NC(=O)CNC(=O)CNC(=O)Cc1ccc2ccccc2c1)C(=O)N[C@@H](CC(=O)O)C(=O)N[C@@H](CCCNC(=N)N)C(=O)N[C@H](C(N)=O)C(C)C [AP333, [2-Napthylacetyl]-G-G-R-I-D-R-V-NH2] ({Acetyl(2-naphthyl)}-GGRIDRV-NH2) | greatly diminished activity | –
6 | (desNH2-F)-G-G-R-I-D-R-I-NH2 [AP132] | – | [^125I]-rANP(126-150) binding to BASM cell-associated receptors [3]: effectively prevent
7 | GGRIDRIGAA-NH2 [AP105, G-G-R-I-D-R-I-G-A-A-NH2] | inactive | –
8 | CC[C@H](C)[C@@H]1NC(=O)[C@H](CCCNC(=N)N)NC(=O)[C@H](CC(=O)O)NC(=O)[C@H]([C@@H](C)CC)NC(=O)[C@H](CCCNC(=N)N)NC(=O)CNC(=O)[C@@H](NC(=O)[C@H](CO)NC(=O)[C@H](CO)NC(=O)[C@@H](N)CCCNC(=N)N)CSSC[C@@H](C(=O)N[C@@H](CC(N)=O)C(=O)N[C@@H](CO)C(=O)N[C@@H](Cc2ccccc2)C(=O)N[C@@H](CCCNC(=N)N)C(=O)N[C@@H](Cc2ccc(O)cc2)C(=O)O)NC(=O)CNC(=O)[C@H](CC(C)C)NC(=O)CNC(=O)[C@H](CO)NC(=O)[C@H](CCC(N)=O)NC(=O)[C@H](C)NC(=O)CNC1=O [AP24, R-S-S-C-G-R-I-D-R-I-G-A-O-S-G-L-G-C-N-S-F-R-Y] (H-RSSCGRIDRIGAQSGLGCNSFRY-OH; disulfide 4-18) | weaker apparent affinity | –
9 | CC[C@H](C)[C@H](NC(=O)[C@H](CCCNC(=N)N)NC(=O)[C@H](CC(=O)O)NC(=O)[C@@H](NC(=O)[C@H](CCCNC(=N)N)NC(=O)CNC(=O)CNC(=O)Cc1ccc(-c2ccccc2)cc1)[C@@H](C)CC)C(N)=O [AP317, [4-Biphenylacetyl]-G-G-R-I-D-R-I-NH2] ({Phenylacetyl(4-Ph)}-GGRIDRI-NH2) | greatly diminished activity | –
10 | AFGGRIDRIGA-NH2 [AP101, A-F-G-G-R-I-D-R-I-G-A-NH2] | substantial Ki(app)s | [^125I]-rANP(126-150) binding to BASM cell-associated receptors [3]: effectively prevent; urinary sodium excretion [2, 5]: significantly increased; urine flow rate (urine volume) [2, 5]: significantly increased; urine flow rate (urine volume) ([4]; infused at 5 µg/min via femoral vein): significantly increased
11 | CC[C@H](C)[C@H](NC(=O)[C@H](CCCNC(=N)N)NC(=O)[C@H](CC(=O)O)NC(=O)[C@@H](NC(=O)[C@@H](CCCNC(=N)N)NC(=O)CNC(=O)CNC(=O)[C@H](Cc1ccccc1)NC(=O)[C@H](C)N)[C@@H](C)CC)C(=O)NCC(=O)N[C@@H](C)C(N)=O [AP301, A-F-G-G-[D-R]-I-D-R-I-G-A-NH2] (H-AFGG[dR]IDRIGA-NH2) | inactive | –
12 | CC[C@H](C)[C@H](NC(=O)[C@H](CCCNC(=N)N)NC(=O)CNC(=O)CNC(=O)[C@H](Cc1ccccc1)NC(=O)[C@H](C)N)C(=O)N[C@@H](CC(=O)O)C(=O)N[C@H](CCCNC(=N)N)C(=O)N[C@H](C(=O)NCC(=O)N[C@@H](C)C(N)=O)[C@@H](C)CC [AP304, A-F-G-G-R-I-D-[D-R]-I-G-A-NH2] (H-AFGGRID[dR]IGA-NH2) | inactive | –
13 | CC[C@H](C)[C@H](NC(=O)[C@H](CCCNC(=N)N)NC(=O)[C@H](CC(=O)O)NC(=O)[C@@H](NC(=O)[C@H](CCCNC(=N)N)NC(=O)CNC(=O)CNC(=O)Cc1ccc2ccccc2c1)[C@@H](C)CC)C(N)=O [AP314, [2-Napthylacetyl]-G-G-R-I-D-R-I-NH2] ({Acetyl(2-naphthyl)}-GGRIDRI-NH2) | high binding affinity; also recorded: substantial Ki(app)s | urinary sodium excretion [2, 6]: significantly increased; urine flow rate (urine volume) [2, 6]: significantly increased
14 | CC[C@H](C)[C@H](NC(=O)[C@H](CCCNC(=N)N)NC(=O)[C@H](CC(=O)O)NC(=O)[C@@H](NC(=O)[C@H](CCCNC(=N)N)NC(=O)CNC(=O)CNC(=O)COc1ccc2ccccc2c1)[C@@H](C)CC)C(N)=O [AP319, [2-Napthoxyacetyl]-G-G-R-I-D-R-I-NH2] ({Acetyl(2-naphthyloxy)}-GGRIDRI-NH2) | high binding affinity | urine flow rate (urine volume) ([4]; infused at 10 µg/min via femoral vein): significantly increased
